“And” between values parts separate entries of the source, which are not always exact repeats. Equal entries are not always repeated. Structures can show the parent of a compound that is named as a salt.
Tested on: ovarian cancer cells with (OVCAR8, OVCAR4) or without (OVSAHO, CAOV3) MYC-HSF1 amplification
Experiment: Epigenetic inhibitor drug screen, cell viability (Cell Titer Blue)
Format: cell-based
Conditions: not given

Point of comparison: “(−)-Epigallocatechin gallate [(−)-Epigallocatechin gallate (EGCG)]”, “Non Amp - AMP (POC) 10 uM” value 4.98 POC. Against it:
- C=C1C(=O)O[C@@H](CCC)[C@@H]1C(=O)O [Butyrolacetone 3] — higher, 9.966 POC
- CCCC(=O)[O-].[Na+] [Sodium butyrate] — lower, −0.4466 POC

Same assay, conditions: 10 uM, 48 hrs; average relative cell viability (vs 1% DMSO) of non-amplified cells (OVSAHO, CAOV3) minus that of MYC-HSF1 amplified cells (OVCAR8, OVCAR4); positive = greater response in amplified cells

Point of comparison: `O=C(/C=C/c1ccccc1)NC(NC(=S)Nc1ccc(Cl)cc1)C(Cl)(Cl)Cl` (stereo not drawn) [Sal 003], “Non Amp - AMP (POC) 10 uM” value −16.28 POC. Against it:
- CN1CCN(C(=O)CN[C@H]2C[C@@H]2c2ccc(OCc3ccccc3)cc2)CC1.Cl.Cl [RN-1 (hydrochloride)] — higher, −2.198 POC
- Br.CC1CC/C(=N\Nc2nc(-c3ccc(Cl)cc3)cs2)C1 (stereo not drawn) [CPTH6 (hydrobromide)] — higher, 13.3 POC
- Cc1cc(Nc2cc(N3CCN(C)CC3)nc(/C=C/c3ccccc3)n2)n[nH]1.O=C(O)C(O)C(O)C(=O)O [ENMD-2076 L-(+)-Tartaric acid] — lower, −24.46 POC
- O=C(NCc1ccccc1)c1c(/N=C/c2c(O)ccc3ccccc23)sc2c1CCCC2 [JGB1741] — higher, 9.247 POC
- COc1cc2c(NC3CCN(C)CC3)nc(N3CCCN(C)CC3)nc2cc1OCCOCCN(C)C [UNC0321 (trifluoroacetate salt)] — higher, 0.4275 POC
- c1ccc([C@@H]2C[C@H]2NC2CCNCC2)cc1 [GSK-LSD1 (hydrochloride)] — higher, 14.88 POC
- Cc1cn(CCN2CCN(c3ccccc3-c3cc(C#N)cc(C(=O)NCCCN4CCCC4)c3)CC2)c2ccccc12 [LLY507] — higher, −14.82 POC
- O=C(O)CC[C@H](O)C(=O)O [L-a-Hydroxyglutaric Acid] — higher, −7.873 POC
- Cc1cnc(Nc2ccc(N3CCN(C)CC3)cc2)nc1Nc1cccc(S(=O)(=O)NC(C)(C)C)c1 [TG101209] — higher, 15.1 POC
- C=C1C[C@@]2(O)O[C@@]3(C[C@H]2C(C)C)[C@@H](C)CC[C@@H]13 [Curcumol] — higher, −1.726 POC
- O=C(O)CNC(=O)C(=O)O [N-Oxalylglycine] — higher, 14.36 POC
- CCC(CC)n1ccc2c(C(=O)NCc3c(C)cc(C)[nH]c3=O)cc(C#N)cc21 [EI1] — higher, 15.27 POC
- O=C(COc1cccc2c(=O)[nH]ccc12)c1ccccc1 [UPF 1069] — higher, −6.052 POC
- O=c1[nH]cnc2c1ncn2[C@@H]1O[C@H](CO)[C@@H](O)[C@H]1O [INO-1001] — higher, −1.319 POC
- c1cc(-c2cnn3cc(-c4ccc(OCCN5CCCCC5)cc4)cnc23)ccn1 [Dorsomorphin (Compourd C), Dorsomorphin] — higher, 7.913 POC
- COC(=O)[C@]12CCC(C)(C)C[C@H]1[C@H]1C(=O)C=C3[C@@]4(C)C=C(C#N)C(=O)C(C)(C)[C@@H]4CC[C@@]3(C)[C@]1(C)CC2 [Bardoxolone methyl] — higher, 6.087 POC
- CCN(CC)C(=O)/C(C#N)=C/c1cc(O)c(O)c([N+](=O)[O-])c1 [Entacapone] — higher, −6.777 POC
- O=C(O)CCNc1cc(N2CCc3ccccc3CC2)nc(-c2cccnc2)n1 [GSK J2] — higher, 0.5701 POC
- O=C1C(=Cc2cccnc2)C(=O)c2ccccc21 [PRT4165] — higher, 1.398 POC
- COc1cc2ncnc(Nc3ccc(O)c(Br)c3)c2cc1OC [WHI-P154] — higher, −1.78 POC
- C[C@@H]1O[C@@H](CC(=O)O)CC2=C1C(=O)c1c(O)cccc1C2=O [Nanaomycin A] — higher, 2.594 POC
- COc1cc(-c2cn(C)c(=O)c3cnccc23)cc(OC)c1CN(C)C [BI-7273] — higher, −8.336 POC
- O=C(/C=C/c1cccc(C(=O)NO)c1)NO [CBHA] — higher, 37.53 POC
- Cl.O=S(=O)(c1cccc2cnccc12)N1CCNCC1 [HA-100 (hydrochloride)] — higher, 12.45 POC
- NC(=O)c1cccc2[nH]c(-c3ccc([C@@H]4CCCN4)cc3F)nc12 [A-966492] — higher, 13.6 POC
- Nc1ccccc1NC(=O)CCCCCC(=O)Nc1ccccc1 [PAOA] — higher, 29.57 POC
- O=c1[nH]cnc2ccccc12 [4-HQN] — higher, −1.37 POC
- Cc1cc(Nc2cc(CN3CCOCC3)c3nc(C)c(Cc4ccc(Cl)cc4F)n3n2)n[nH]1 [LY2784544] — higher, −1.068 POC
- O=C(CCCCCCNC(=O)c1cnc(N(c2ccccc2)c2ccccc2Cl)nc1)NO [ACY-241] — higher, 35.17 POC
- N.N.O=C([O-])C1(C(=O)[O-])CCC1.[Pt+2] [Carboplatin] — higher, −13.46 POC
- Cc1nn(C)cc1CN1CCC(c2ccc(C(=O)Nc3ccccc3N)cc2)CC1 [CXD101] — higher, 83.35 POC
- O=C([C@@H](Cc1cccc(C(F)(F)F)c1)NS(=O)(=O)c1cc(F)c2c(c1)CCNC2)N1CCCC1 [PFI-2] — higher, −2.63 POC
- CCCOc1ccc(CCc2nc3cc(-c4c(C)noc4C)ccc3n2CCN2CCOCC2)cc1.Cl [PF-CBP1 hydrochloride] — higher, 9.953 POC
- NC(=O)c1ccccc1 [Benzamide] — higher, −5.576 POC
- CC1=CC(=O)c2c(O)cccc2C1=O [Plumbagin] — higher, 4.102 POC
- O=C(CCCCCCC(=O)Nc1ccc(I)cc1)NO [4-iodo-SAHA] — higher, 29.5 POC
- CC(C(=O)Nc1cccc(/N=C/c2c(O)ccc3ccccc23)c1)c1ccccc1 (stereo not drawn) [Salermide] — higher, −13.88 POC
- COc1cc(-c2cn(C)c(=O)c3cnccc23)c(OC)cc1CN(C)C [BI-9564] — higher, 11 POC
- CC(=O)SCC(=O)c1ccc(NS(=O)(=O)c2ccc(OCCCN(C)C)cc2)nc1 [KD 5170] — higher, 12.43 POC
- CC(C)N(CCCNC(=O)Nc1ccc(C(C)(C)C)cc1)C[C@H]1O[C@@H](n2ccc3c(N)ncnc32)[C@H](O)[C@@H]1O.O=CO [EPZ004777 (formate)] — higher, 10.91 POC
- COc1ccc(S(=O)(=O)ON=C2C=C(C)C(=O)C(C)=C2)cc1 [L002] — lower, −39.83 POC
- O=P(O)(O)OC(CO)CO [β-Glycerophosphate (sodium salt hydrate), β-Glycerophosphate] — higher, 2.069 POC
- Cc1noc(C)c1-c1ccc(-c2nc3cnccn3c2NC(C)(C)C)cc1 [UMB-32] — higher, −3.692 POC
- CN(C)CCCCC(=O)Nc1ccc(NC(=S)NC(=O)c2ccc(C(C)(C)C)cc2)cc1 [Tenovin-6] — higher, 0.07933 POC
- CC(C)[C@H](C(=O)Nc1ccc(C(=O)NO)cc1)c1ccccc1 [AR-42 (OSU-HDAC42)] — higher, −6.14 POC
- O=C(Cc1ccccc1)Nc1ccc2oc(-c3ccc(Cl)cc3Cl)nc2c1 [CAY10722] — higher, −11.2 POC
- O=S(=O)(NCCSSCCNS(=O)(=O)c1cc(Cl)ccc1Cl)c1cc(Cl)ccc1Cl [KC7F2] — higher, −3.553 POC
- CC[C@@](C)(Nc1ccnc(-c2c[nH]c3ncccc23)n1)C(=O)NCC(F)(F)F [Decernotinib(VX-509), Decernotinib] — higher, 7.322 POC

Same assay, conditions: 10 uM, 48 hrs; average relative cell viability (vs 1% DMSO) of non-amplified cells (OVSAHO, CAOV3) minus that of MYC-HSF1 amplified cells (OVCAR8, OVCAR4); positive = greater response in amplified cells; 10 µM

Point of comparison: `O=C(/C=C/N1C[C@H]2C[C@@H]1CN2c1ccccn1)c1ccccc1O` [PFI-3], “Non Amp - AMP (POC) 10 uM” value 12.92 POC. Against it:
- N[C@@H]1C[C@H]1c1ccccc1 (racemic) [Tranylcypromine (hydrochloride), Tranylcypromine] — lower, 0.7437 POC
- Nc1ccc(S(=O)(=O)NCCc2ccccc2)cc1 [C-7280948] — higher, 13.45 POC
- Cc1[nH]c2ccccc2c1CCNCc1ccc(/C=C/C(=O)NO)cc1 [Panobinostat] — higher, 41.46 POC
- CC(C)C(=O)SCCCCCCC(=O)Nc1nc(-c2ccccc2)cs1 [NCH-51] — higher, 27.52 POC
- Nc1nc2nc[nH]c2c(=S)[nH]1 [6-Thioguanine] — lower, 12.09 POC
- CCNC(=O)C[C@@H]1N=C(c2ccc(Cl)cc2)c2cc(OC)ccc2-n2c(C)nnc21 [I-BET-762] — lower, 5.52 POC
- Nc1ccccc1NC(=O)CCCCCCC(=O)Nc1ccccc1 [BML-210] — higher, 30.7 POC
- N#CC[C@H](C1CCCC1)n1cc(-c2ncnc3[nH]ccc23)cn1 [Ruxolitinib phosphate] — lower, 2.659 POC

`O=C(CCCCCN1C(=O)c2cccc3cccc(c23)C1=O)NO` [Scriptaid] was tested, and the “Non Amp - AMP (POC) 10 uM” value was 45.24 POC and 29.99 POC.

Same assay, conditions: 10 uM, 48 hrs; average relative cell viability (vs 1% DMSO) of non-amplified cells (OVSAHO, CAOV3) minus that of MYC-HSF1 amplified cells (OVCAR8, OVCAR4); positive = greater response in amplified cells; listed as BML-210(CAY10433), 10 µM

With `Nc1ccccc1NC(=O)CCCCCCC(=O)Nc1ccccc1` [BML-210] the “Non Amp - AMP (POC) 10 uM” value was 14.33 POC.

Same assay, conditions: 10 uM, 48 hrs; average relative cell viability (vs 1% DMSO) of non-amplified cells (OVSAHO, CAOV3) minus that of MYC-HSF1 amplified cells (OVCAR8, OVCAR4); positive = greater response in amplified cells; listed as C7280948, 10 µM

`Nc1ccc(S(=O)(=O)NCCc2ccccc2)cc1` [C-7280948] was tested, and the “Non Amp - AMP (POC) 10 uM” value was 0.5735 POC.

Same assay, conditions: 10 uM, 48 hrs; average relative cell viability (vs 1% DMSO) of non-amplified cells (OVSAHO, CAOV3) minus that of MYC-HSF1 amplified cells (OVCAR8, OVCAR4); positive = greater response in amplified cells; listed as I-BET762, 10 µM

`CCNC(=O)C[C@@H]1N=C(c2ccc(Cl)cc2)c2cc(OC)ccc2-n2c(C)nnc21` [I-BET-762] was tested, and the “Non Amp - AMP (POC) 10 uM” value was −1.572 POC.

Same assay, conditions: 10 uM, 48 hrs; average relative cell viability (vs 1% DMSO) of non-amplified cells (OVSAHO, CAOV3) minus that of MYC-HSF1 amplified cells (OVCAR8, OVCAR4); positive = greater response in amplified cells; listed as NCH 51, 10 µM

In the case of `CC(C)C(=O)SCCCCCCC(=O)Nc1nc(-c2ccccc2)cs1` [NCH-51], the “Non Amp - AMP (POC) 10 uM” value is reported as 9.119 POC.

Same assay, conditions: 10 uM, 48 hrs; average relative cell viability (vs 1% DMSO) of non-amplified cells (OVSAHO, CAOV3) minus that of MYC-HSF1 amplified cells (OVCAR8, OVCAR4); positive = greater response in amplified cells; listed as PFI 3, 10 µM

In the case of `O=C(/C=C/N1C[C@H]2C[C@@H]1CN2c1ccccn1)c1ccccc1O` [PFI-3], the “Non Amp - AMP (POC) 10 uM” value is reported as 5.077 POC.

Same assay, conditions: 10 uM, 48 hrs; average relative cell viability (vs 1% DMSO) of non-amplified cells (OVSAHO, CAOV3) minus that of MYC-HSF1 amplified cells (OVCAR8, OVCAR4); positive = greater response in amplified cells; listed as Panobinostat (LBH589), 10 µM

With `Cc1[nH]c2ccccc2c1CCNCc1ccc(/C=C/C(=O)NO)cc1` [Panobinostat] the “Non Amp - AMP (POC) 10 uM” value was 27.26 POC.

Same assay, conditions: 10 uM, 48 hrs; average relative cell viability (vs 1% DMSO) of non-amplified cells (OVSAHO, CAOV3) minus that of MYC-HSF1 amplified cells (OVCAR8, OVCAR4); positive = greater response in amplified cells; listed as Tranylcypromine hydrochloride, 10 µM

`N[C@@H]1C[C@H]1c1ccccc1` (racemic) [Tranylcypromine (hydrochloride), Tranylcypromine] was tested, and the “Non Amp - AMP (POC) 10 uM” value was −0.6348 POC.

Reference: US20250011881A1, “MYC-HSF1 DUAL AMPLIFICATION AS A BIOMARKER FOR CANCER TREATMENT” (The Trustees of Indiana University, priority 2023, published 2025)
